Data published in patent publication US8349793B2, “Method for treatment of inflammatory disease and disorder” (Heal0r, Ltd., priority 2010, dated 2013).
Where no end group is shown, it is not given here. The star is where a group is joined. Palmitoyl = CCCCCCCCCCCCCCCC(=O)*; Myristoyl = CCCCCCCCCCCCCC(=O)*

Columns and labels:
keratinocytes [1] = test: Keratinocyte differentiation markers (Filaggrin, Loricrin, Keratin 1); assay type: cell-based, C57BL/6J mice; conditions: concentration: EPIP1 and DAP1 1 μg/ml, 10 μg/ml, EPIP2 10 μg/ml
Procedure: Keratinocytes derived from C57BL/6J mice were incubated in medium containing Ca^2+ to induce keratinocytes differentiation. Cells were then incubated in the presence of […] (1 μg/ml). Cells were harvested, run on SDS PAGE gel and immunoblotted using anti-Filaggrin (Fil), anti Loricrin (Lor) and anti-Keratin 1 (K1) antibody.
(§1) FIGS. 7 and 8 presents a summary of expression data in keratinocytes utilizing various peptide PKCα inhibitors: MPDY-1 (SEQ ID NO: 21) as well as data for the peptide PKCα inhibitors AIP-1 (SEQ ID NO: 3), AIP-2 (SEQ ID NO: 20), AWOT-1 (SEQ ID NO: 5) and PPDY-1 (SEQ ID NO: 22). […] FIG. 8 presents a summary of expression data in keratinocytes for various peptide PKCα inhibitors.

keratinocytes [2] = test: Cytokine secretion in keratinocytes stimulated by LPS, TNFα or IL-17 (ELISA); assay type: cell-based, BALB/C mice; conditions: for cytokine secretion in keratinocytes: stimulated by LPS, TNFα, or IL-17
Procedure: To determine their effects, keratinocytes were derived from newborn BALB/C mice skin. The cells were incubated for 5 days in 24 wells plate. Cells were then incubated with PBS−/− as control or stimulated by LPS, TNFα, or IL-17. PKCα inhibitors were added as indicated. Medium containing secreted cytokines was collected after 48 hr and analyzed using ELISA. FIG. 40 is a tabular summary of cytokine secretion.
PKCδactivators were also shown to have an anti-inflammatory effect on keratinocytes and splenocytes. Keratinocytes were derived from newborn BALB/C mice skin. The cells were incubated for 5 days in 24 wells plate. Cells were then incubated with PBS−/− as control or stimulated by LPS or TNFα. The PKCδ inhibitor DAP-1 (SEQ ID NO: 16) was added. Medium containing secreted cytokines was collected after 48 hr and analyzed using ELISA. FIG. 35 is a tabular summary showing cytokine secretion in splenocytes stimulated with LPS. […] Cytokine secretion in keratinocytes stimulated by TNFα: following stimulation with 35 ng/ml TNFα. And treatment with 10 μg/ml of DAP-1, the cytokine levels of IL-1α, G-CSF, MIP-2 and KC were reduced by 95%, 70%, 20% and 30# respectively.
PKCε inhibitors were also shown to have an anti-inflammatory effect on keratinocytes. Keratinocytes were derived from newborn BALB/C mice skin. The cells were incubated for 5 days in 24 wells plate. Cells were then incubated with PBS−/− as control or stimulated by LPS or TNFα. The PKCεinhibitors EPIP-1 (SEQ ID NO: 20), EPIP-2 (SEQ ID NO: 21), or EPIP-4 (SEQ ID NO: 23) were added. Medium containing secreted cytokines was collected after 48 hr and analyzed using ELISA. FIGS. 36-39 show the results for secretion of specific cytokines while Table 8 summarizes cytokine secretion for the various PKCε inhibitors: […]

keratinocytes [3] = test: Keratinocyte migration; assay type: cell-based; set-up: concentration or dose not given beside the values
splenocytes = test: Cytokine secretion in splenocytes stimulated with LPS or TNFα (ELISA); assay type: cell-based, B6 mice; conditions: TNFα 25 ng/ml, 48 hr
Text: Inhibitory effect on activated splenocytes: Splenocytes were derived from B6 mice. […] Medium containing secreted cytokines was collected after 48 hr and analyzed using ELISA.

keratinocytes [4] = test: Keratinocyte proliferation in vitro (PCNA); assay type: cell-based, Balb/c mice
Procedure: Primary murine keratinocytes from 2 days old Balb/c mice were grown for 5 days to reach full confluence in 0.05 mM Ca^2+ MEM medium. HO/02/10 treatment (10^−6M and 10^−5M) was applied 6 hours prior to induction of differentiation. Cells were harvested, run on SDS PAGE gel and immunoblotted using anti-PCNA antibodies. In addition, C57Black mice, 8-10 weeks of age were subjected to full thickness wounding in the upper back area to induce epidermis remodeling and differentiation. Following the wounding, mice were treated daily with HO/02/10 (ranged 40-4000 mg/kg/day) for 7 days. At the termination point, mice were euthanized and upper back skin samples were fixed in 4% paraformaldehyde solution, following paraffin embedding and slide preparation. Skin samples were then subjected to immunohistochemical staining utilizing PCNA antibody. (n=18).
as §1

[5] = LPS 1 [μg/ml], peptide [10 μg/ml], 48 hr
[6] = LPS 1 [μg/ml], peptide [1 g/ml], 48 hr
[7] = TNF [35 ng/ml], peptide [10 μg/ml], 48 hr
[8] = TNF [35 ng/ml], peptide [1 g/ml], 48 hr
[9] = keratinocytes, LPS (1 μg/ml) (EPIP4: printed 1 mg/ml), peptide concentration not given
[10] = keratinocytes, TNFa stim (35 ng/ml), 1 μg/ml of peptide (given for EPIP1, EPIP2, not for EPIP4), reduction printed with or without minus sign

PYIALNVD [EPIP-2]
Differentiation markers: granular differentiation (keratinocytes [1]): Reduces granular | Differentiation markers: spainous differentiation (keratinocytes [1]): Slightly induces | G-CSF secretion (change) (keratinocytes [2]; [5]): −75% | IL-6 secretion (change) (keratinocytes [2]; [5]): −55% | IP-10 secretion (change) (keratinocytes [2]; [5]): −40% | KC secretion (change) (keratinocytes [2]; [5]): −90% | G-CSF secretion (change) (keratinocytes [2]; [6]): −50% | IL-6 secretion (change) (keratinocytes [2]; [6]): −40% | IP-10 secretion (change) (keratinocytes [2]; [6]): −50% | KC secretion (change) (keratinocytes [2]; [6]): −90% | G-CSF secretion (change) (keratinocytes [2]; [7]): −100% | IL-6 secretion (change) (keratinocytes [2]; [7]): −95% | IP-10 secretion (change) (keratinocytes [2]; [7]): (−40%) | G-CSF secretion (change) (keratinocytes [2]; [8]): −100% | IL-6 secretion (change) (keratinocytes [2]; [8]): −95% | IP-10 secretion (change) (keratinocytes [2]; [8]): (−65%) | G-CSF secretion (change) (keratinocytes [2]; [9]): −50% | IL-6 secretion (change) (keratinocytes [2]; [9]): −40% | IP-10 secretion (change) (keratinocytes [2]; [9]): −50% | KC secretion (change) (keratinocytes [2]; [9]): −90% | Reduces Chemokines IP 10 (keratinocytes [2]; [10]): Chemokines IP 10 (65%) | Reduces proinflammatory cytokines IL-6 (keratinocytes [2]; [10]): (95%), systemic cytokines G-SCF | Migration, Induces (keratinocytes [3]): (200%) | IL-4 (% reduction in secretion) (splenocytes; peptide 1 μg/ml): 15% | IL-17 (% reduction in secretion) (splenocytes; peptide 1 μg/ml): 80% | IP-10 (% reduction in secretion) (splenocytes; peptide 1 μg/ml): 20% | G-CSF (% reduction in secretion) (splenocytes; peptide 10 μg/ml): 30% | IL-6 (% reduction in secretion) (splenocytes; peptide 10 μg/ml): 25% | IL-10 (% reduction in secretion) (splenocytes; peptide 10 μg/ml): 30% | IL-17 (% reduction in secretion) (splenocytes; peptide 10 μg/ml): 85% | IP-10 (% reduction in secretion) (splenocytes; peptide 10 μg/ml): 10% | Proliferation markers (keratinocytes [4]; 1 μg/ml): Induces | Proliferation markers (keratinocytes [4]; 10 μg/ml): Reduce

Palmitoyl-Phe-Ala-Arg-Lys-Gly-Ala-Leu-Arg-Gln (Palmitoyl-FARKGALRQ) [PPDY-1]
cytokine secretion in keratinocytes (keratinocytes [2]; 48 hr): effective in decreasing cytokine secretion

FARKGALRQ [AWOT]
cytokine secretion from LPS and TNFα activated keratinocytes (keratinocytes [2]; FIGS. 19 to 23): decrease | cytokine secretion from IL-17A activated keratinocytes (keratinocytes [2]; FIGS. 24 to 27): decrease | cytokine secretion in keratinocytes (keratinocytes [2]; 48 hr): effective in decreasing cytokine secretion

TLNPQWES [AIP-1]
cytokine secretion in keratinocytes (keratinocytes [2]; 48 hr): effective in decreasing cytokine secretion

Myristoyl-Thr-Arg-Lys-Arg-Gln-Arg-Ala-Met-Arg-Arg-Arg-Val-His-Gln-Ile-Asn-Gly (Myristoyl-TRKRQRAMRRRVHQING) [MPE-1]
G-CSF (% reduction in secretion) (splenocytes; peptide 1 μg/ml): 40% | IL-6 (% reduction in secretion) (splenocytes; peptide 1 μg/ml): 25% | IL-17 (% reduction in secretion) (splenocytes; peptide 1 μg/ml): 90% | G-CSF (% reduction in secretion) (splenocytes; peptide 10 μg/ml): 15% | IL-17 (% reduction in secretion) (splenocytes; peptide 10 μg/ml): 90%
